Data as given in PubChem BioAssay (NCI).
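All cell lines were grown in 96-well plates and treated with compound for 48 hours. TGI: total growth inhibition.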

Tests used:
Experiment in all cases: DTP human tumour cell line panel, 48 h
[1] = system: 786-0 renal
[2] = system: A549 NSCLC
[3] = system: ACHN renal
[4] = system: BT-549 breast
[5] = system: CAKI-1 renal
[6] = system: CCRF-CEM leukemia
[7] = system: COLO 205 colon
[8] = system: DU-145 prostate
[9] = system: EKVX NSCLC
[10] = system: HCT-116 colon
[11] = system: HCT-15 colon
[12] = system: HOP-92 NSCLC
[13] = system: HS 578T breast
[14] = system: HT29 colon
[15] = system: IGROV1 ovarian
[16] = system: K-562 leukemia
[17] = system: KM12 colon
[18] = system: M14 melanoma
[19] = system: MALME-3M melanoma
[20] = system: MCF7 breast
[21] = system: MDA-MB-231 breast
[22] = system: MDA-MB-435
[23] = system: MDA-N
[24] = system: MOLT-4 leukemia
[25] = system: NCI-H226 lung
[26] = system: NCI-H23 lung
[27] = system: NCI-H460 lung
[28] = system: NCI-H522 lung
[29] = system: NCI/ADR-RES ovarian
[30] = system: OVCAR-4 ovarian
[31] = system: OVCAR-5 ovarian
[32] = system: OVCAR-8 ovarian
[33] = system: PC-3 prostate
[34] = system: RPMI-8226 leukemia
[35] = system: RXF 393 renal
[36] = system: SF-268 CNS
[37] = system: SF-295 CNS
[38] = system: SF-539 CNS
[39] = system: SK-MEL-2 melanoma
[40] = system: SK-MEL-5 melanoma
[41] = system: SK-OV-3 ovarian
[42] = system: SN12C renal
[43] = system: SNB-19 CNS
[44] = system: SNB-75 CNS
[45] = system: SW-620 colon
[46] = system: T-47D breast
[47] = system: TK-10 renal
[48] = system: U251 CNS
[49] = system: UACC-257 melanoma
[50] = system: UACC-62 melanoma
[51] = system: UO-31 renal
[52] = system: A498 renal
[53] = system: HCC-2998 colon
[54] = system: HL-60(TB) leukemia
[55] = system: HOP-62 NSCLC
[56] = system: LOX IMVI melanoma
[57] = system: OVCAR-3 ovarian
[58] = system: SK-MEL-28 melanoma

`NNC(=O)c1cc(=O)[nH][nH]1` was tested, and the TGI [1] was > 100 µM, the TGI [2] was > 100 µM and the TGI [3] was > 100 µM. The TGI [4] was > 100 µM, the TGI [5] was > 100 µM and the TGI [6] was > 100 µM. For the same compound, the TGI [7] was > 100 µM, the TGI [8] was > 100 µM and the TGI [9] was > 100 µM. For the same compound, the TGI [10] was > 100 µM, the TGI [11] was > 100 µM and the TGI [12] was > 100 µM. The TGI [13] was > 100 µM, the TGI [14] was > 100 µM and the TGI [15] was > 100 µM. For the same compound, the TGI [16] was > 100 µM, the TGI [17] was > 100 µM and the TGI [18] was > 100 µM. For the same compound, the TGI [19] was > 100 µM, the TGI [20] was > 100 µM and the TGI [21] was > 100 µM. For the same compound, the TGI [22] was > 100 µM, the TGI [23] was > 100 µM and the TGI [24] was > 100 µM. The TGI [25] was > 100 µM, the TGI [26] was > 100 µM and the TGI [27] was > 100 µM. The TGI [28] was > 100 µM, the TGI [29] was > 100 µM and the TGI [30] was > 100 µM. For the same compound, the TGI [31] was > 100 µM, the TGI [32] was > 100 µM and the TGI [33] was > 100 µM. The TGI [34] was > 100 µM, the TGI [35] was > 100 µM and the TGI [36] was > 100 µM. The TGI [37] was > 100 µM, the TGI [38] was > 100 µM and the TGI [39] was > 100 µM. For the same compound, the TGI [40] was > 100 µM, the TGI [41] was > 100 µM and the TGI [42] was > 100 µM. For the same compound, the TGI [43] was > 100 µM, the TGI [44] was > 100 µM and the TGI [45] was > 100 µM. For the same compound, the TGI [46] was > 100 µM, the TGI [47] was > 100 µM and the TGI [48] was > 100 µM. The TGI [49] was > 100 µM, the TGI [50] was > 100 µM and the TGI [51] was > 100 µM.
`Cc1nc2c(=S)n(C)ncc2[nH]1` was tested, and the TGI [1] was > 100 µM, the TGI [52] was > 100 µM and the TGI [2] was > 100 µM. For the same compound, the TGI [3] was > 100 µM, the TGI [4] was > 100 µM and the TGI [5] was > 100 µM. For the same compound, the TGI [6] was > 100 µM, the TGI [7] was > 100 µM and the TGI [9] was > 100 µM. The TGI [53] was > 100 µM, the TGI [10] was > 100 µM and the TGI [11] was > 100 µM. The TGI [54] was > 100 µM, the TGI [55] was > 100 µM and the TGI [14] was > 100 µM. For the same compound, the TGI [15] was > 100 µM, the TGI [16] was > 100 µM and the TGI [17] was > 100 µM. The TGI [56] was > 100 µM, the TGI [18] was > 100 µM and the TGI [19] was 69.7 µM. The TGI [20] was > 100 µM, the TGI [21] was > 100 µM and the TGI [22] was > 100 µM. The TGI [23] was > 100 µM, the TGI [24] was > 100 µM and the TGI [25] was > 100 µM. The TGI [26] was > 100 µM, the TGI [28] was > 100 µM and the TGI [29] was > 100 µM. The TGI [57] was > 100 µM, the TGI [30] was > 100 µM and the TGI [31] was > 100 µM. For the same compound, the TGI [32] was > 100 µM, the TGI [33] was > 100 µM and the TGI [34] was > 100 µM. The TGI [37] was > 100 µM, the TGI [38] was > 100 µM and the TGI [39] was > 100 µM. The TGI [58] was > 100 µM, the TGI [40] was > 100 µM and the TGI [41] was > 100 µM. The TGI [42] was > 100 µM, the TGI [44] was > 100 µM and the TGI [45] was > 100 µM. The TGI [46] was > 100 µM, the TGI [47] was > 100 µM and the TGI [48] was > 100 µM. For the same compound, the TGI [49] was > 100 µM, the TGI [50] was > 100 µM and the TGI [51] was > 100 µM.
`O=C(CCc1ccccc1)On1c(-c2ccccc2)nc2ccccc2c1=S` was tested, and the TGI [1] was > 100 µM, the TGI [52] was > 100 µM and the TGI [2] was > 100 µM. For the same compound, the TGI [3] was > 100 µM, the TGI [4] was > 100 µM and the TGI [5] was > 100 µM. The TGI [6] was > 100 µM, the TGI [7] was > 100 µM and the TGI [8] was > 100 µM. For the same compound, the TGI [9] was 52.1 µM, the TGI [53] was 27.8 µM and the TGI [10] was 8.81 µM. For the same compound, the TGI [11] was 67.5 µM, the TGI [54] was > 100 µM and the TGI [55] was 31.5 µM. For the same compound, the TGI [12] was > 100 µM, the TGI [13] was > 100 µM and the TGI [14] was > 100 µM. For the same compound, the TGI [15] was > 100 µM, the TGI [16] was > 100 µM and the TGI [17] was 24 µM. For the same compound, the TGI [56] was 83.6 µM, the TGI [18] was 44.7 µM and the TGI [19] was 22.6 µM. The TGI [20] was > 100 µM, the TGI [21] was > 100 µM and the TGI [22] was > 100 µM. The TGI [23] was > 100 µM, the TGI [24] was 23.3 µM and the TGI [25] was 29.9 µM. For the same compound, the TGI [26] was 28 µM, the TGI [27] was > 100 µM and the TGI [29] was 79.1 µM. The TGI [57] was > 100 µM, the TGI [30] was > 100 µM and the TGI [31] was 50.5 µM. For the same compound, the TGI [32] was 64.6 µM, the TGI [33] was 56.3 µM and the TGI [34] was > 100 µM. The TGI [35] was 57.3 µM, the TGI [36] was > 100 µM and the TGI [37] was > 100 µM. For the same compound, the TGI [38] was 20.7 µM, the TGI [39] was 37.5 µM and the TGI [58] was > 100 µM. For the same compound, the TGI [40] was 47.2 µM, the TGI [41] was > 100 µM and the TGI [42] was > 100 µM. For the same compound, the TGI [43] was > 100 µM, the TGI [44] was > 100 µM and the TGI [45] was > 100 µM. The TGI [46] was > 100 µM, the TGI [47] was > 100 µM and the TGI [48] was > 100 µM. The TGI [49] was > 100 µM, the TGI [50] was 36.9 µM and the TGI [51] was 39.3 µM.
For `N#C/C(=C/NC(=S)c1ccncc1)C(N)=O`, the TGI [1] was > 100 µM, the TGI [52] was > 100 µM and the TGI [2] was > 100 µM. The TGI [3] was > 100 µM, the TGI [4] was > 100 µM and the TGI [5] was > 100 µM. For the same compound, the TGI [7] was > 100 µM, the TGI [8] was > 100 µM and the TGI [9] was > 100 µM. The TGI [53] was > 100 µM, the TGI [10] was > 100 µM and the TGI [11] was > 100 µM. For the same compound, the TGI [54] was > 100 µM, the TGI [55] was > 100 µM and the TGI [12] was > 100 µM. The TGI [14] was > 100 µM, the TGI [15] was > 100 µM and the TGI [17] was > 100 µM. For the same compound, the TGI [56] was > 100 µM, the TGI [18] was > 100 µM and the TGI [20] was > 100 µM. For the same compound, the TGI [21] was > 100 µM, the TGI [22] was > 100 µM and the TGI [23] was > 100 µM. For the same compound, the TGI [24] was > 100 µM, the TGI [25] was > 100 µM and the TGI [26] was > 100 µM. The TGI [27] was > 100 µM, the TGI [29] was > 100 µM and the TGI [57] was > 100 µM. For the same compound, the TGI [30] was > 100 µM, the TGI [31] was > 100 µM and the TGI [32] was > 100 µM. The TGI [35] was > 100 µM, the TGI [36] was > 100 µM and the TGI [37] was > 100 µM. The TGI [38] was > 100 µM, the TGI [39] was > 100 µM and the TGI [58] was > 100 µM. For the same compound, the TGI [40] was > 100 µM, the TGI [41] was > 100 µM and the TGI [42] was > 100 µM. The TGI [43] was > 100 µM, the TGI [44] was > 100 µM and the TGI [45] was > 100 µM. The TGI [46] was > 100 µM, the TGI [47] was > 100 µM and the TGI [48] was > 100 µM. For the same compound, the TGI [49] was > 100 µM, the TGI [50] was > 100 µM and the TGI [51] was > 100 µM.
